Assay results published in the supplement of paper PMC11208160.

Assay: recombinant barcode read abundance after kanamycin selection (control-corrected) (log10(CPM+1)); higher = more efficient recombination; sequences stand for … in AGTGCAGAGAAAATCGGCCAGTTTTCTCTGCCTGCAGTCCGCATGCCGT…AGATTTATGCAGCGGACTGCCTTTCTCCCAAAGTGATAAACCGGACAGTATCATGGACCGGTTTTCCCGGTAATCCGTATTTGCAAGGTTGGTTTCACT; site = the 11-nt target
Procedure, shortened: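 Recombination efficiency was calculated from barcode counts at recombinant junctions, normalized to counts per million, averaged and corrected by the control. Each value is given as log10(CPM+1). The constructs were Gibson-cloned oligos (promoter, target, barcode, J23119-driven first 104 bridge RNA bases) in a vector with the remaining 73 bp and a T7-inducible recombinase, co-electroporated into E. coli with a donor plasmid and plated in duplicate on chloramphenicol/ampicillin LB agar (control) or chloramphenicol/ampicillin/kanamycin with 0.1 mM IPTG.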
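Further: IS621 recombinase and bridge RNA in Escherichia coli cells.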

| Sequence | recombinant barcode read abundance (log10) |
| --- | --- |
| GATTTCTCTTGGGTTCTAACCTGTTGCCT (site AATTTCTCTAG) | 0.104 |
| GATTTCTCTTGGGTTCTAACCTGTTGCCT (site CATTTCTCTAG) | 0.0742 |
| GATTTCTCTTGGGTTCTAACCTGTTGCCT (site GATTTCTCTAG) | 0.228 |
| GATTTCTCTTGGGTTCTAACCTGTTGCCT (site TATTTCTCTAG) | 0.124 |
| GCAAGATCTTGGGTTCTAACCTGTTGCCT (site GCAAGATCTAG) | 1.36 |
| GCAAGATCTTGGGTTCTAACCTGTTGCCT (site GCAGGGTCTAG) | 0.0113 |
| GCAATGACTTGGGTTCTAACCTGTTGCCT (site GAAATGACTAG) | 0 |
| GCAATGACTTGGGTTCTAACCTGTTGCCT (site GCAATGACTAG) | 1.88 |
| GCAATGACTTGGGTTCTAACCTGTTGCCT (site GGAATGACTAG) | 0.105 |
| GCAATGACTTGGGTTCTAACCTGTTGCCT (site GTAATGACTAG) | 0.292 |
| GCAATGTCTTGGGTTCTAACCTGTTGCCT (site GAAATGTCTAG) | 0.104 |
| GCAATGTCTTGGGTTCTAACCTGTTGCCT (site GCAATGTCTAG) | 1.42 |
| GCAATGTCTTGGGTTCTAACCTGTTGCCT (site GGAATGTCTAG) | 0.239 |
| GCAATGTCTTGGGTTCTAACCTGTTGCCT (site GTAATGTCTAG) | 0.443 |
| GCACACCCTTGGGTTCTAACCTGTTGCCT (site CCACATCCTAG) | 0.0345 |
| GCACACCCTTGGGTTCTAACCTGTTGCCT (site GCACACCCTAG) | 1.1 |
| GCACATCCTTGGGTTCTAACCTGTTGCGT (site GCAAATCCTAG) | 0.154 |
| GCACATCCTTGGGTTCTAACCTGTTGCGT (site GCACATCCTAC) | 2.53 |
| GCACCTGCTTGGGTTCTAACCTGTTGCCT (site GCACCTGCTAG) | 1.61 |
| GCACCTGCTTGGGTTCTAACCTGTTGCCT (site TATTTGCCTCA) | 0.238 |
| GCACGCTCTTGGGTTCTAACCTGTTGCCT (site GCACACTCTAG) | 0.607 |
| GCACGCTCTTGGGTTCTAACCTGTTGCCT (site GCACCCTCTAG) | 0.192 |

| Sequence | recombinant barcode read abundance (log10) |
| --- | --- |
| GCACGCTCTTGGGTTCTAACCTGTTGCCT (site GCACGCTCTAG) | 1.55 |
| GCACGCTCTTGGGTTCTAACCTGTTGCCT (site GCACTCTCTAG) | 0.12 |
| GCACTCTCTTGGGTTCTAACCTGTTGCCT (site GCACACTCTAG) | 0.0251 |
| GCACTCTCTTGGGTTCTAACCTGTTGCCT (site GCACCCTCTAG) | 0.568 |
| GCACTCTCTTGGGTTCTAACCTGTTGCCT (site GCACGCTCTAG) | 0.101 |
| GCACTCTCTTGGGTTCTAACCTGTTGCCT (site GCACTCTCTAG) | 1.58 |
| GCATCCACTTGGGTTCTAACCTGTTGCCT (site GCATCCACTAG) | 0.938 |
| GCATCCACTTGGGTTCTAACCTGTTGCCT (site GCGTCCACTAG) | 0.0333 |
| GCATCTACTTGGGTTCTAACCTGTTGCCT (site GAATCTACTAG) | 0.101 |
| GCATCTACTTGGGTTCTAACCTGTTGCCT (site GCATCTACTAG) | 0.136 |
| GCATCTACTTGGGTTCTAACCTGTTGCCT (site GGATCTACTAG) | 0.059 |
| GCATCTACTTGGGTTCTAACCTGTTGCCT (site GTATCTACTAG) | 0.2 |
| GCATCTCCTTGGGTTCTAACCTGTTGCCT (site ACATCTCCTAG) | 0.4 |
| GCATCTCCTTGGGTTCTAACCTGTTGCCT (site CCATCTCCTAG) | 0.103 |
| GCATCTCCTTGGGTTCTAACCTGTTGCCT (site GCATCTCCTAG) | 1.06 |
| GCATCTCCTTGGGTTCTAACCTGTTGCCT (site TCATCTCCTAG) | 0.0491 |
| GCATGAGCTTGGGTTCTAACCTGTTGCCT (site GCATGAGCTAG) | 2.09 |
| GCATGAGCTTGGGTTCTAACCTGTTGCCT (site GCCTGAGCTAG) | 0.122 |
| GCATGAGCTTGGGTTCTAACCTGTTGCCT (site GCGTGAGCTAG) | 0.136 |
| GCATGAGCTTGGGTTCTAACCTGTTGCCT (site GCTTGAGCTAG) | 0.914 |
| GCCAACCCTTGGGTTCTAACCTGTTGCAT (site GCCAACCCTAA) | 0.0781 |
| GCCAACCCTTGGGTTCTAACCTGTTGCAT (site GCCAACCCTAC) | 0.0603 |

| Sequence | recombinant barcode read abundance (log10) |
| --- | --- |
| GCCAACCCTTGGGTTCTAACCTGTTGCAT (site GCCAACCCTAG) | 0.348 |
| GCCAACCCTTGGGTTCTAACCTGTTGCAT (site GCCAACCCTAT) | 0 |
| GCCAACCCTTGGGTTCTAACCTGTTGCTA (site GCCAACCCTTA) | 0.116 |
| GCCAACCCTTGGGTTCTAACCTGTTGCTA (site TCCAACCCTTG) | 0.129 |
| GCCACACCTTGGGTTCTAACCTGTTGCCT (site GCCAAACCTAG) | 0.188 |
| GCCACACCTTGGGTTCTAACCTGTTGCCT (site GCCACACCTAG) | 0.222 |
| GCCACACCTTGGGTTCTAACCTGTTGCCT (site GCCAGACCTAG) | 0.177 |
| GCCACACCTTGGGTTCTAACCTGTTGCCT (site GCCATACCTAG) | 0.153 |
| GCCAGGGCTTGGGTTCTAACCTGTTGCCG (site GCCAGGGCTCG) | 0.461 |
| GCCAGGGCTTGGGTTCTAACCTGTTGCCG (site GCCCGGGCTCG) | 0.264 |
| GCCAGGGCTTGGGTTCTAACCTGTTGCCG (site GCCGGGGCTCG) | 0.111 |
| GCCAGGGCTTGGGTTCTAACCTGTTGCCG (site GCCTGGGCTCG) | 0.0195 |
| GCCATACCTTGGGTTCTAACCTGTTGCCT (site GCCAAACCTAG) | 0.0715 |
| GCCATACCTTGGGTTCTAACCTGTTGCCT (site GCCACACCTAG) | 0.0723 |
| GCCATACCTTGGGTTCTAACCTGTTGCCT (site GCCAGACCTAG) | 0.194 |
| GCCATACCTTGGGTTCTAACCTGTTGCCT (site GCCATACCTAG) | 0.199 |
| GCCATGACTTGGGTTCTAACCTGTTGCCT (site GCCATAACTAG) | 0.067 |
| GCCATGACTTGGGTTCTAACCTGTTGCCT (site GCCATCACTAG) | 0.0872 |
| GCCATGACTTGGGTTCTAACCTGTTGCCT (site GCCATGACTAG) | 0.132 |
| GCCATGACTTGGGTTCTAACCTGTTGCCT (site GCCATTACTAG) | 0 |
| GCCCAATCTTGGGTTCTAACCTGTTGCCT (site GCCCAATCTAG) | 1.05 |
| GCCCAATCTTGGGTTCTAACCTGTTGCCT (site GCCCCATCTAG) | 0.115 |

| Sequence | recombinant barcode read abundance (log10) |
| --- | --- |
| GCCCAATCTTGGGTTCTAACCTGTTGCCT (site GCCCGATCTAG) | 0.176 |
| GCCCAATCTTGGGTTCTAACCTGTTGCCT (site GCCCTATCTAG) | 0.195 |
| GCCCAGCCTTGGGTTCTAACCTGTTGCGG (site ACCAAGCCTCC) | 0.0607 |
| GCCCAGCCTTGGGTTCTAACCTGTTGCGG (site GCCCAGCCTCC) | 2.71 |
| GCCCTCCCTTGGGTTCTAACCTGTTGCCT (site GCACTCCCTAG) | 0.558 |
| GCCCTCCCTTGGGTTCTAACCTGTTGCCT (site GCCCTCCCTAG) | 1.77 |
| GCCCTCCCTTGGGTTCTAACCTGTTGCCT (site GCGCTCCCTAG) | 0.0524 |
| GCCCTCCCTTGGGTTCTAACCTGTTGCCT (site GCTCTCCCTAG) | 0.597 |
| GCCGGCTCTTGGGTTCTAACCTGTTGCCT (site GACGGCTCTAG) | 0.182 |
| GCCGGCTCTTGGGTTCTAACCTGTTGCCT (site GCCGGCTCTAG) | 1.35 |
| GCCTAGTCTTGGGTTCTAACCTGTTGCCA (site GCCTAGTCTTG) | 1.13 |
| GCCTAGTCTTGGGTTCTAACCTGTTGCCA (site TCCTAGTCTTG) | 0.0302 |
| GCCTCGGCTTGGGTTCTAACCTGTTGCCT (site GCATCGGCTAG) | 0.0156 |
| GCCTCGGCTTGGGTTCTAACCTGTTGCCT (site GCCTCGGCTAG) | 0.134 |
| GCCTCGGCTTGGGTTCTAACCTGTTGCCT (site GCGTCGGCTAG) | 0.0495 |
| GCCTCGGCTTGGGTTCTAACCTGTTGCCT (site GCTTCGGCTAG) | 0.0313 |
| GCCTCGTCTTGGGTTCTAACCTGTTGCCT (site GCATCGTCTAG) | 0.0638 |
| GCCTCGTCTTGGGTTCTAACCTGTTGCCT (site GCCTCGTCTAG) | 0.68 |
| GCCTCGTCTTGGGTTCTAACCTGTTGCCT (site GCGTCGTCTAG) | 0.206 |
| GCCTCGTCTTGGGTTCTAACCTGTTGCCT (site GCTTCGTCTAG) | 0.0462 |
